Consider 2 molecules from PMC12662848 (Cancer Chemotherapy and Pharmacology, 2025).

A short description of series [1]: Enzalutamide and N-desmethyl enzalutamide trough plasma PK (LC–MS/MS). The settings on record: for ENZAdm Cmin D1: 24 h sample relative to Cmin D0; for ENZAdm Cmin D1 / ENZAdm Cmin D0: geometric mean (geometric SD); for ENZAdm Cmin D0: pre 1st venetoclax sample on day 1. As to the method: Additional samples were collected prior to dosing on days 8, 15, 21, and 57 (Fig. 1A). Samples were centrifuged at approximately 1,000 × g, and plasma was stored at −70 °C or colder until analysis.
Plasma PK parameters were derived from the data by non-compartmental methods with WinNonlin (Certara, Princeton, NJ). Statistical analyses for PK parameter values were performed using SPSS 27.0 for Windows (SPSS Inc., Chicago, IL). Within patient variability in Cmin was calculated from the day 8 through day 57 data across doses by calculating 100 × the square root of the mean square within groups obtained after ANOVA of log-transformed values of these parameters with subject as a factor.

For series [2] the following is noted: cited from earlier work.
For the next series, the system named is AR−/lo LAPC9-CRPC. Also on record: method as in PMID 30190514. The settings on record: single agent; cited from earlier work.
Another series deals with CYP3A4. The note with it: a sensitive CYP3A4 substrate; cited from earlier work.

`CC1(C)C(=O)N(c2ccc(C#N)c(C(F)(F)F)c2)C(=S)N1c1ccc(C(N)=O)c(F)c1` [N-desmethyl enzalutamide]: the “Intrapatient variability in Cmin” value in series [1] (N-desmethyl enzalutamide, from day 1 through 57) was determined as 10 %CV. The “ENZAdm Cmin D1” value is listed as 7.59 (1.34) µg/mL in series [1] (venetoclax 400 mg (N=3)), 15.1 (1.12) µg/mL in series [1] (venetoclax 600 mg (N=3)) and 14.2 (1.21) µg/mL in series [1] (venetoclax 800 mg (N=4)). The “ENZAdm Cmin D0” value is given as 7.04 (1.31) µg/mL in series [1] (venetoclax 400 mg (N=3)) and 15.2 (1.07) µg/mL in series [1] (venetoclax 600 mg (N=3)). Also, the “N-desmethyl enzalutamide concentration in previous reports” value in series [2] is 13 µg/L.

Regarding `CNC(=O)c1ccc(N2C(=S)N(c3ccc(C#N)c(C(F)(F)F)c3)C(=O)C2(C)C)cc1F` [enzalutamide], the “Growth of AR−/lo LAPC9-CRPC” value in the series on AR−/lo LAPC9-CRPC is recorded as “not”. For the same molecule, in series [1] (male, human, in vivo), the “Intrapatient variability in Cmin” value turned out to be 7.0 %CV. In addition, the “ENZA Cmin D1” value in series [1] (male, human, in vivo, 24 h) is 12.4 (1.19) µg/mL. For the same molecule, the “Enzalutamide concentration in previous reports” value in series [2] is 11.4 µg/L. Also, the “Increase in oral clearance of midazolam” value in the series with CYP3A4 is given as “sevenfold”.
